Experimental data reported in patent US12325709B2, “Cannabinoid derivatives” (CANOPY GROWTH CORPORATION, priority 2019, dated 2025).

Key:
human CB1 receptor = molecular target: T1, human CB1 receptor (Homo sapiens, UniProt P21554); test: CB1 radioligand competitive binding assay ([3H]CP 55,940 displacement); conditions: for Selectivity CB1: fold difference in binding between CB1 and CB2, shown in column of receptor with higher affinity, 1.00 in both = about the same affinity
T1 construct: host or cells: CHO-K1 (Chinese hamster ovary) cells, stably transfected; membranes prepared in house
T1 sequence (P21554 whole entry): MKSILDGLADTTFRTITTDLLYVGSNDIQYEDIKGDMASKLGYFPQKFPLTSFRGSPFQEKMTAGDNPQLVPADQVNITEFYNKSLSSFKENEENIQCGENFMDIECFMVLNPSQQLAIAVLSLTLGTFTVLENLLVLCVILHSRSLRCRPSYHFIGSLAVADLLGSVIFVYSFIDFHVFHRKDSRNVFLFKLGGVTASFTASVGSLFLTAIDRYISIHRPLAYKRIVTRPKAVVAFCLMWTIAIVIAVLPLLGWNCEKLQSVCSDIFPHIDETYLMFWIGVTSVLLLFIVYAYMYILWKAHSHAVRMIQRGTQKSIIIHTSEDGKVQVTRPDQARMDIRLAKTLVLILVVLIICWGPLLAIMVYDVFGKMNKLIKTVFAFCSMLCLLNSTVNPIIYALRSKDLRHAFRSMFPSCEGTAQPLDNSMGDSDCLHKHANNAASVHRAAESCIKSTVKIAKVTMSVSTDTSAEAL

human CB2 receptor = molecular target: T2, human CB2 receptor (Homo sapiens, UniProt P34972); test: CB2 radioligand competitive binding assay ([3H]CP 55,940 displacement); conditions: for Selectivity CB2: fold difference in binding between CB1 and CB2, shown in column of receptor with higher affinity, 1.00 in both = about the same affinity
T2 construct: host or cells: CHO-K1 (Chinese hamster ovary) cells, stably transfected; membranes prepared in house
T2 sequence (P34972 whole entry): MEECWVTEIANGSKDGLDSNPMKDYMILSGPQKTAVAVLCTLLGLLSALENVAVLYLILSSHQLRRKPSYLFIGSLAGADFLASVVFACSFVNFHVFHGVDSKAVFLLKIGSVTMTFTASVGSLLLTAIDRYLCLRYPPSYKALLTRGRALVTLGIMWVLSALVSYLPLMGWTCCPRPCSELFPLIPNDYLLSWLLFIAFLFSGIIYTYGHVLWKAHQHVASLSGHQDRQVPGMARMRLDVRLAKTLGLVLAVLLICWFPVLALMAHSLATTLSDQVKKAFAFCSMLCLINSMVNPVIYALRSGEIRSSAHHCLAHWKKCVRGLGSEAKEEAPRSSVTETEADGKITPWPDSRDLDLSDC
Method: Compounds of the present disclosure were tested for CB1 receptor binding affinity and for CB2 receptor binding affinity. As used herein, “binding affinity” is represented by the IC50 value, which was experimentally determined as described herein. The lower the IC50 value the higher the binding affinity.
The membranes were prepared from CHO-K1 (Chinese hamster ovary) cells stably transfected with the human CB2 receptor (Cat. #ES-111-C; Perkin Elmer, Boston, MA). The cells were grown adherently and maintained in Ham's F12 medium containing 10% fetal bovine serum (FBS), penicillin, streptomycin and geneticin (G418) at 37° C. in a humid atmosphere of 5% CO2 following the manufacturer's instructions.
For membrane preparation the cells were washed with PBS and scraped off the plates in cold homogenization buffer (25 mM HEPES (pH 7.4), 2 mM EDTA) containing protease inhibitor cocktail (Sigma Cat. #P8340). The cell suspension was homogenized with a Pro-PK-01200D Polytron Homogenizer (Pro Scientific) and then centrifuged for 30 min at 120,000×g. The supernatant was discarded and the pellet was re-suspended in the homogenization buffer and stored at −80° C. until the time of use.
In this experiment, 3H radiolabeled CP 55,940, i.e. [3H]CP 55,940 (Perkin Elmer, Boston, MA), was used as a radioligand for the CB2 receptor to determine the binding affinity of compounds for the CB2 receptor (Scheme 3; above).
The competition binding experiments (single dose and dose-response) were performed by incubating 0.6 nM of [3H]CP55,940 (specific activity 101 Ci/mmol, Perkin Elmer) and different concentrations of compounds disclosed herein with membranes prepared as above from CHO-K1 cells expressing human CB2 receptor (1 μg of protein/well), 50 mM Tris-HCl (pH 7.4), 5 mM MgCl2, 1 mM CaCl2, and 2 mg/mL BSA.
For the dose-response experiments the test compounds were sequentially diluted to provide the desired concentration range for the IC50 determination. In each case the compounds were pre-incubated with the membrane for 20 min, before adding the radioligand.
After incubation with the radioligand for 60 min at 37° C., the incubation was terminated by rapid filtration of assay mixture through MultiScreen®HTS^+ 96-well filter plates (Millipore, Cat. #MSFCNXB), pre-soaked for 60 min with 50 mM Tris-HCl (pH 7.4) containing 0.33% polyethylenimine (PEI). The nonspecific binding (NSB) was determined in the presence of 10 μM unlabelled CP55,940. After drying the filter plate at 50° C. for at least 60 min, the filter-bound radioactivity was determined by scintillation spectrometry using the 1450 MicroBeta Plate Counter (Perkin Elmer, Boston, MA).

Row | SMILES | IC50 (human CB1 receptor) [nM] | IC50 (human CB2 receptor) [nM] | Selectivity CB2 (human CB2 receptor) [fold] | Selectivity CB1 (human CB1 receptor) [fold]
1 | CCCc1c(CN(C)C(=O)OC)c(O)c(C2C=C(C)CCC2)c(O)c1CN(C)C(=O)OC (stereo not shown) [59′c, dimethyl ((2,6-dihydroxy-5′-methyl-4-propyl-1′,2′,3′,4′-tetrahydro-[1,1′-biphenyl]-3,5-diyl)bis(methylene))bis(methylcarbamate)] | 1000 to 4990 | 100 to 990 | 3.25 | –
2 | CCCCCc1cc(O)c(C2C=C(C)CCC2)c(O)c1C(=O)NC (stereo not shown) [Compound 1c, 2,6-dihydroxy-N,5′-dimethyl-4-pentyl-1′,2′,3′,4′-tetrahydro-[1,1′-biphenyl]-3-carboxamide] | > 5000 | 1000 to 4990 | 3.20 | –
3 | C=C(C)[C@@H]1CCC(C)=C[C@H]1c1c(O)cc(CCCCC)c(C(=O)NC)c1O [Compound 1d, 2,6-dihydroxy-N,5′-dimethyl-4-pentyl-2′-(prop-1-en-2-yl)-1′,2′,3′,4′-tetrahydro-[1,1′-biphenyl]-3-carboxamide] | 1000 to 4990 | 100 to 990 | 1.26 | –
4 | C=C(C)[C@@H]1CCC(C)=C[C@H]1c1c(O)cc(CCCCC)c(C(=O)NCC)c1O [Compound 3d, N-ethyl-2,6-dihydroxy-5′-methyl-4-pentyl-2′-(prop-1-en-2-yl)-1′,2′,3′,4′-tetrahydro-[1,1′-biphenyl]-3-carboxamide] | 1000 to 4990 | 1000 to 4990 | 1.80 | –
5 | CCCCCc1cc(O)c(C2C=C(C)CCC2)c(O)c1C(=O)NC1CC1 (stereo not shown) [Compound 6c, N-cyclopropyl-2,6-dihydroxy-5′-methyl-4-pentyl-1′,2′,3′,4′-tetrahydro-[1,1′-biphenyl]-3-carboxamide] | 1000 to 4990 | < 100 | 40.14 | –
6 | C=C(C)[C@@H]1CCC(C)=C[C@H]1c1c(O)cc(CCCCC)c(C(=O)NC2CC2)c1O [Compound 6d, N-cyclopropyl-2,6-dihydroxy-5′-methyl-4-pentyl-2′-(prop-1-en-2-yl)-1′,2′,3′,4′-tetrahydro-[1,1′-biphenyl]-3-carboxamide] | > 5000 | 1000 to 4990 | 9.09 | –
7 | CCCCCc1cc(O)c(C2C=C(C)CCC2)c(O)c1C(=O)NC1CCCC1 (stereo not shown) [Compound 7c, N-cyclopentyl-2,6-dihydroxy-5′-methyl-4-pentyl-1′,2′,3′,4′-tetrahydro-[1,1′-biphenyl]-3-carboxamide] | 100 to 990 | < 100 | 188.10 | –
8 | C=C(C)[C@@H]1CCC(C)=C[C@H]1c1c(O)cc(CCCCC)c(C(=O)Nc2ccc(OC)cc2)c1O [Compound 11d, 2,6-dihydroxy-N-(4-methoxyphenyl)-5′-methyl-4-pentyl-2′-(prop-1-en-2-yl)-1′,2′,3′,4′-tetrahydro-[1,1′-biphenyl]-3-carboxamide] | 1000 to 4990 | 100 to 990 | 3.11 | –
9 | CCCCCc1cc(O)c(C2C=C(C)CCC2)c(O)c1C(=O)NCc1ccccc1 (stereo not shown) [Compound 14c, N-benzyl-2,6-dihydroxy-5′-methyl-4-pentyl-1′,2′,3′,4′-tetrahydro-[1,1′-biphenyl]-3-carboxamide] | 1000 to 4990 | < 100 | 1300.00 | –
10 | C=C(C)C1CCC(C)=CC1c1c(O)cc(CCCCC)c(C(=O)NCc2ccccc2)c1O (stereo not shown) [Compound 14d, N-benzyl-2,6-dihydroxy-5′-methyl-4-pentyl-2′-(prop-1-en-2-yl)-1′,2′,3′,4′-tetrahydro-[1,1′-biphenyl]-3-carboxamide] | > 5000 | 1000 to 4990 | 13.50 | –
11 | CCCCCc1cc(O)c(-c2cccc(C)c2)c(O)c1C(=O)NCc1cccnc1 [Compound 15a, 2,6-dihydroxy-3′-methyl-4-pentyl-N-(pyridin-3-ylmethyl)-[1,1′-biphenyl]-3-carboxamide] | > 5000 | 100 to 990 | 17.62 | –
12 | CCCCCc1cc(O)c(C2C=C(C)CCC2)c(O)c1C(=O)NCc1cccnc1 (stereo not shown) [Compound 15c, 2,6-dihydroxy-5′-methyl-4-pentyl-N-(pyridin-3-ylmethyl)-1′,2′,3′,4′-tetrahydro-[1,1′-biphenyl]-3-carboxamide] | 1000 to 4990 | < 100 | 23.17 | –
13 | C=C(C)[C@@H]1CCC(C)=C[C@H]1c1c(O)cc(CCCCC)c(C(=O)NCc2cccnc2)c1O [Compound 15d, 2,6-dihydroxy-5′-methyl-4-pentyl-2′-(prop-1-en-2-yl)-N-(pyridin-3-ylmethyl)-1′,2′,3′,4′-tetrahydro-[1,1′-biphenyl]-3-carboxamide] | 100 to 990 | 100 to 990 | – | 2.48
14 | C=CCNC(=O)c1c(CCCCC)cc(O)c(C2C=C(C)CCC2)c1O (stereo not shown) [Compound 25c, N-allyl-2,6-dihydroxy-5′-methyl-4-pentyl-1′,2′,3′,4′-tetrahydro-[1,1′-biphenyl]-3-carboxamide] | 1000 to 4990 | 100 to 990 | 16.53 | –
15 | CCCCCc1cc(O)c(C2C=C(C)CCC2)c(O)c1C(=O)N1CCn2cnnc2C1 (stereo not shown) [Compound 34c, (5,6-dihydro-[1,2,4]triazolo[4,3-a]pyrazin-7(8H)-yl)(2,6-dihydroxy-5′-methyl-4-pentyl-1′,2′,3′,4′-tetrahydro-[1,1′-biphenyl]-3-yl)methanone] | > 5000 | > 5000 | 1.00 | 1.00
16 | CCCCCc1cc(O)c(C2C=C(C)CCC2)c(O)c1C(=O)N1CCN(S(C)(=O)=O)CC1 (stereo not shown) [Compound 37c, (2,6-dihydroxy-5′-methyl-4-pentyl-1′,2′,3′,4′-tetrahydro-[1,1′-biphenyl]-3-yl)(4-(methylsulfonyl)piperazin-1-yl)methanone] | > 5000 | 100 to 990 | 66.67 | –
17 | CCCCCc1cc(O)c(-c2cccc(C)c2)c(O)c1C(=O)N1CCOCC1 [Compound 39a, (2,6-dihydroxy-3′-methyl-4-pentyl-[1,1′-biphenyl]-3-yl)(morpholino)methanone] | > 5000 | > 5000 | 3.70 | –
18 | CCCCCc1cc(O)c(C2C=C(C)CCC2)c(O)c1C(=O)N1CCOCC1 (stereo not shown) [Compound 39c, (2,6-dihydroxy-5′-methyl-4-pentyl-1′,2′,3′,4′-tetrahydro-[1,1′-biphenyl]-3-yl)(morpholino)methanone] | 1000 to 4990 | 1000 to 4990 | 3.20 | –
19 | C=C(C)[C@@H]1CCC(C)=C[C@H]1c1c(O)cc(CCCCC)c(C(=O)N2CCOCC2)c1O [Compound 39d, (2,6-dihydroxy-5′-methyl-4-pentyl-2′-(prop-1-en-2-yl)-1′,2′,3′,4′-tetrahydro-[1,1′-biphenyl]-3-yl)(morpholino)methanone] | > 5000 | 1000 to 4990 | 3.49 | –
20 | CCCCCc1cc(O)c(C2C=C(C)CCC2)c(O)c1C(=O)N1CCCC1 (stereo not shown) [Compound 41c, (2,6-dihydroxy-5′-methyl-4-pentyl-1′,2′,3′,4′-tetrahydro-[1,1′-biphenyl]-3-yl)(pyrrolidin-1-yl)methanone] | > 5000 | 1000 to 4990 | 13.31 | –
21 | CCCCCc1cc(O)c(C2C=C(C)CCC2)c(O)c1C(=O)NCc1ccccc1Br (stereo not shown) [Compound 57c, N-(2-bromobenzyl)-2,6-dihydroxy-5′-methyl-4-pentyl-1′,2′,3′,4′-tetrahydro-[1,1′-biphenyl]-3-carboxamide] | 1000 to 4990 | < 100 | 21.67 | –
